Experimental data: US20250237650A1 (priority 2021, published 2025)

Assays:
[1] = test system: WT, Alpha, Beta, Delta, and Omicron BA.1 spike proteins; assay type: binding, SARS-CoV-2
[2] = test system: full-length trimeric Alpha, Beta, and Delta spikes; assay type: binding, SARS-CoV-2

Substance	binding affinities to VOC spikes (in words) [1]	binding affinity to variant spikes relative to WT spike [2]
heparin [reference compound]	an increase in affinity between HEP and Omicron spike over Delta and other VOC spikes	
heparin [HEP15, reference compound]		comparable binding affinity to WT spike
ACE2	within nanomolar range	
